Molecular target: T1, glycine-binding site of the NMDA receptor channel (Rattus norvegicus, UniProt P35439)
T1 construct: from tissue; host or cells: rat brain cortex and hippocampus membrane homogenate (male Wistar rats, Charles River)
Assay: Receptor binding test, displacement of (3H)-MDL 105.519 on rat brain membrane homogenates
Settings: rat cortex and hippocampus membrane homogenate; for inhibition at 10 µM: (3H)-MDL 105.519; for Ki: 1 nmol/l (3H)-MDL 105.519, IC50 converted using Cheng-Prusoff equation
Protocol: The investigations for determining the affinity of the γ-lactone compounds of the general formula I according to the invention for the glycine-binding site of the NMDA receptor channel were performed on brain membrane homogenates (homogenate of cortex and hippocampus area from the brain of male rats, Wistar strain, Charles River, WIGA GmbH, Sulzbach, Germany), as described in B. M. Baron et al., Journal of Pharmacology and Experimental Therapeutics, vol. 279, pages 62-68, 1996. The corresponding literature description is hereby introduced as a reference and is deemed to be part of the disclosure.
To this end, the cortex and hippocampus were dissected out of freshly harvested rat brains and homogenised with ice cooling in 5 mmol/l of TRIS-acetate buffer, 0.32 mol/l of sucrose, pH 7.4 (10 ml/g fresh weight) using a Potter homogeniser (Braun, Melsungen, Germany, 10 piston strokes at 500 revolutions per minute (rpm)) and then centrifuged for 10 minutes at 1,000 g and 4° C. The first supernatant was collected and the sediment again homogenised with ice cooling with 5 mmol/l of TRIS-acetate buffer, 0,32 mol/l of sucrose, pH 7.4 (5 ml/g of original fresh weight of rat cerebral cortex and hippocampus) with the Potter homogeniser (10 piston strokes at 500 rpm) and centrifuged for 10 minutes at 1,000 g and 4° C. The resultant supernatant was combined with the supernatant from the first centrifugation and centrifuged at 17,000 g for 20 minutes at 4° C. The supernatant after this centrifugation was discarded and the membrane sediment was resuspended with 5 mmol/l of TRIS-acetate buffer, pH 8.0 (20 ml/g of original fresh weight) and homogenised with 10 piston strokes at 500 rpm.
The membrane homogenate was then incubated for 1 hour at 4° C. and centrifuged for 30 minutes at 50,000 g and 4° C. The supernatant was discarded and the centrifuge tubes containing the membrane sediment were sealed with Parafilm and frozen for 24 hours at −20° C. On the following day, the membrane sediment was thawed and resuspended with ice-cold 5 mmol/l TRIS-acetate buffer, 0,1% saponin (wt./vol.), pH 7.0 (10 ml/g of original fresh weight) and homogenised with 10 piston strokes at 500 rpm and then centrifuged for 20 minutes at 50,000 g and 4° C. The resultant supernatant was discarded and the sediment resuspended in a small volume with 5 mmol/l of TRIS-acetate buffer, pH 7.0 (approx. 2 ml/g of original fresh weight) and again homogenised with 10 piston strokes at 500 rpm. After determination of the protein content, the membrane homogenate was adjusted with 5 mmol/l TRIS-acetate buffer, pH 7.0, to a protein concentration of 10 mg of protein/ml and frozen in aliquots until used for testing.
The receptor binding test was performed by thawing aliquots, diluting them 1:10 with 5 mmol/l TRIS-acetate buffer, pH 7.0, homogenising them with ice-cooling with 10 piston strokes at 500 rpm with the Potter homogeniser and centrifuging them for 60 minutes at 55,000 g at 4° C. The supernatant was decanted and the membrane sediment adjusted with ice-cold 50 mmol/l TRIS-acetate buffer, pH 7.0, to a protein concentration of 1 mg/ml and again homogenised with 10 piston strokes at 500 rpm and kept in suspension in an ice bath with stirring on a magnetic stirrer. This membrane homogenate was used in the receptor binding test in a quantity of 100 μl per 1 ml batch (0.1 mg of protein/ml in the final batch).
In the binding test, 50 mmol/l TRIS-acetate buffer pH 7.0 was used as the buffer and 1 nmol/l of (^3H)-MDL 105.519 was used as the radioactive ligand, as described in the above-stated literature reference by B. M. Baron et al. The level of non-specific binding was determined in the presence of 1 mmol/l of glycine.
In further batches, the compounds of the general formula I according to the invention were added in concentration series and the displacement of the radioactive ligand from its specific binding at the glycine-binding site of the NMDA receptor channel was determined. […]

inhibition at 10 µM [%] | Ki [nM] | Structure (SMILES)
71 | 1300 | CC1(c2ccc(Cl)cc2)CC(Nc2cc(Cl)cc(Cl)c2)C(=O)O1 (stereo not shown) [Example 25, 5-(4-Chloro-phenyl)-3-(3,5-dichloro-phenylamino)-5-methyl-dihydro-furan-2-one]
70 | 800 | CC1(c2ccc(F)cc2)CC(Nc2cc(Cl)cc(Cl)c2)C(=O)O1 (stereo not shown) [Example 13, 3-(3,5-Dichloro-phenylamino)-5-(4-fluoro-phenyl)-5-methyl-dihydro-furan-2-one]
62 |  | CCCCC1(c2ccccc2)CC(Nc2cc(Cl)cc(Cl)c2)C(=O)O1 (stereo not shown) [Example 108, 5-n-Butyl-3-(3,5-dichlorophenylamino)-5-phenyl-dihydrofuran-2-one]
80 | 800 | CC1(c2ccccc2)CC(Nc2cc(Cl)cc(Cl)c2)C(=O)O1 (stereo not shown) [Example 12, 3-(3,5-Dichloro-phenylamino)-5-methyl-5-phenyl-dihydro-furan-2-one]

From patent US6956055B2, “Substituted γ-lactone compounds as NMDA-antagonists” (Grunenthal GmbH, priority 2001, dated 2005)
